For orientation: EC50 means the concentration needed to bring the measured effect to its halfway point.

The structures appear in SMILES notation. Like-named read-outs stand apart in the source and are kept apart here. Where a SMILES comes first, the peptide text is derived from it. Bridges are numbered along the chain shown (N, C = ends).

Consider four compounds from publication PMC9320628, “Analysis of Structural Determinants of Peptide MS 9a-1 Essential for Potentiating of TRPA1 Channel” (Marine Drugs, 2022).

The subject of series [1] is TRPA1-expressing oocytes. The conditions noted are these: cited from earlier work. On the procedure: Oocytes expressing rat TRPA1 (Q6RI86) channel were prepared as described previously. Experiments were approved by the Institutional Animal Care and Use Committee (IACUC) of the Shemyakin–Ovchinnikov Institute of Bioorganic Chemistry Russian Academy of Sciences (Protocol Number 267/2018; date of approval: 28 February 2019). Female frogs were anaesthetized with 0.17% solution of tricaine methane sulfonate (MS222) and oocytes were surgically removed. cRNA was synthesized using a HiScribe™ T7 High Yield RNA Synthesis Kit (New England Biolabs, Ipswich, MA, USA) according to the manufacturers’ ...

For series [2], the target named is T1, rat TRPA1 (Q6RI86) channel (Rattus norvegicus, UniProt Q6RI86).
T1 construct: expressed in transfected cells; host or cells: Xenopus laevis oocytes injected with cRNA
Description: Potentiation of diclofenac-induced TRPA1 currents, two-electrode recordings in Xenopus laevis oocytes. The class given is cell-based. The note with it: for Maximal potentiating effect lower than that of Ms 9a-1: compared to Ms 9a-1, inward and outward currents; for Diclofenac-induced inward current potentiated up to (maximal, % of control) / EC50 / Diclofenac-induced outward current potentiated up to (maximal, % of control): oocytes expressing rat TRPA1, diclofenac 300 μM; for EC50: Ca2+-free solution, 22–24 °C, mean ± SD of 4–7 measurements, SD. On the procedure:
Peptide activity was measured in Xenopus laevis oocytes, heterologously expressing the TRPA1 channel (Figure 2 and Figure S2). Recordings occurred in repeated 4 s pulses of voltage ramp from −100 mV to 100 mV over 200 ms, whereby inward current was measured at −100 mV and outward at 100 mV.
Oocytes expressing rat TRPA1 (Q6RI86) channel were prepared as described previously. Experiments were approved by the Institutional Animal Care and Use Committee (IACUC) of the Shemyakin–Ovchinnikov Institute of Bioorganic Chemistry Russian Academy of Sciences (Protocol Number 267/2018; date of approval: 28 February 2019). Female frogs were anaesthetized with 0.17% solution of tricaine methane sulfonate (MS222) and oocytes were surgically removed. cRNA was synthesized using a HiScribe™ T7 High Yield RNA Synthesis Kit (New England Biolabs, Ipswich, MA, USA) according to the manufacturers’ protocol for capped transcripts and then injected in X. laevis oocytes. The oocytes were kept for 2–7 days at 16–17 °C in sterile ND-96 medium (96 mM NaCl, 2 mM KCl, 1.8 mM CaCl2, 1 mM MgCl2, 5 mM HEPES, pH 7.4) supplemented with 50 μg/mL gentamycin. Electrophysiological recordings were carried out at room temperature (22–24 °C) in Ca^2+-free solution (96 mM NaCl, 2 mM KCl, 1 mM MgCl2, 5 mM HEPES, pH 7.4) using the GeneClamp500 amplifier (Axon Instruments, Union City, CA, USA) at a holding potential of −50 mV. The data were filtered at 20 Hz and digitized at 100 Hz by an AD converter L780 (LCard, Moscow, Russia) using in-house software. Oocytes were impaled with two glass microelectrodes filled with 3 M KCl. Inward/outward currents were recorded at repeated every 4 seconds a stimuli comprising step from holding potential to −100 mV for 80 ms followed by voltage ramp from −100 mV to +100 mV for 200 ms and final step to holding potential. Diclofenac (300 μM in Ca^2+-free solution) was used to activate the channel.

For series [3] the following is noted: cited from earlier work. The text has this:
We compared the efficacy of peptides Ms 9a-1, C-Ms, N-Ms, Ms 9a-2, and Ms 9a-3 in models of AITC- ...

Setting [4] is: inward current at −100 mV, read-out: EC50 of potentiation of diclofenac-induced inward TRPA1 current.
[5] abbreviates: outward current at +100 mV, read-out: EC50 of potentiation of diclofenac-induced outward TRPA1 current.

T1 sequence (Q6RI86 whole entry): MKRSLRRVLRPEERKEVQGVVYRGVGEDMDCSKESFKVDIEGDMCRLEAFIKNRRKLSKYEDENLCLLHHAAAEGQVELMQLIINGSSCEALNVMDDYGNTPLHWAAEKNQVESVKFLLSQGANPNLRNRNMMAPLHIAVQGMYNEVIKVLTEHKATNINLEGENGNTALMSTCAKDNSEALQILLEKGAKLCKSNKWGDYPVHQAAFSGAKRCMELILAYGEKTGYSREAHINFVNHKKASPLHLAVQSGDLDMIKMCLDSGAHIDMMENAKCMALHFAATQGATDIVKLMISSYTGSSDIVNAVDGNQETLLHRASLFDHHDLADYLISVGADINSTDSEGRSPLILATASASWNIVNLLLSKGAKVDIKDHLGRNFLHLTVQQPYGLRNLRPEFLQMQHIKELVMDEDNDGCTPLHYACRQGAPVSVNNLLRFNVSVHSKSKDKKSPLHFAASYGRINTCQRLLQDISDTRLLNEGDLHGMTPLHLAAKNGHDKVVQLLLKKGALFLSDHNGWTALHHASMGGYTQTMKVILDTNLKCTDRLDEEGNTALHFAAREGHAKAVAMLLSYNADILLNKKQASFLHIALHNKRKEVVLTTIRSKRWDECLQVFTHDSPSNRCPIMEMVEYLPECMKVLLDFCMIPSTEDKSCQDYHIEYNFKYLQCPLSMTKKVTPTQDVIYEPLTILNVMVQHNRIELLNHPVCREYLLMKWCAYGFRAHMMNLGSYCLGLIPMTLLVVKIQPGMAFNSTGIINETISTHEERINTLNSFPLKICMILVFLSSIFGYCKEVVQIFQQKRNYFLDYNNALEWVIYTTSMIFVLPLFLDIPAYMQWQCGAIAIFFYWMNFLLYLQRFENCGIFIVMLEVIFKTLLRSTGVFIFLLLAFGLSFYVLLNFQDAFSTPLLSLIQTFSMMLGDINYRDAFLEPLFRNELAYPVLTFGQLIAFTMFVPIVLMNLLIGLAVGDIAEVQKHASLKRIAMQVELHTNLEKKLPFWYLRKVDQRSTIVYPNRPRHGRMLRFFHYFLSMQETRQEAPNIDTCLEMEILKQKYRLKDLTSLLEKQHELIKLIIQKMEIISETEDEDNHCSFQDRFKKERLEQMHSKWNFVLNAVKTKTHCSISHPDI

As for `O=C(O)Cc1ccccc1Nc1c(Cl)cccc1Cl` [Diclofenac], in series [1] (X. laevis oocytes, read-out: EC50 of current increase in TRPA1-expressing oocytes), the EC50 was 210000 nM. Besides, in series [1] (uninjected oocytes), the “Effect on uninjected oocytes of X. laevis” value is reported as “no effect”.

Take `CC[C@H](C)[C@@H]1NC(=O)[C@H](CCCNC(=N)N)NC(=O)[C@H](C(C)C)NC(=O)[C@@H]2CSSC[C@H](NC(=O)CNC(=O)CNC(=O)[C@@H](NC(=O)[C@@H](NC(=O)[C@@H](NC(=O)[C@@H](N)CC(N)=O)[C@@H](C)CC)[C@@H](C)CC)C(C)C)C(=O)N[C@@H](CO)C(=O)N[C@@H](CCCCN)C(=O)N[C@@H](CSSC[C@@H](C(=O)NCC(=O)N[C@H](C(=O)O)C(C)C)NC(=O)CNC(=O)[C@H](C)NC1=O)C(=O)N[C@@H](Cc1c[nH]cn1)C(=O)N[C@@H](CCCCN)C(=O)N[C@@H](CCC(N)=O)C(=O)N[C@@H](CC(=O)O)C(=O)N[C@@H](CO)C(=O)N[C@@H](CO)C(=O)NCC(=O)N[C@@H](CC(N)=O)C(=O)N2` [Ms 9a-2] (H-NIIVGGCSKCHKQDSSGNCVRIAGCGV-OH; disulfide 7-19, 10-25): the “Maximal potentiating effect lower than that of Ms 9a-1” value in series [2] was 45–50%. In addition, the “Increase of effective concentration (EC50) for inward current compared to Ms 9a-1” value in series [2] (inward current, relative to Ms 9a-1) worked out at 3 times. In series [2] (inward current at −100 mV), the “Diclofenac-induced inward current potentiated up to (maximal, % of control)” value is recorded as 139%. Besides, the results for the EC50 in series [2] (setting [4]) and in series [2] (setting [5]) were 412 ± 48 nM and 606 ± 201 nM, respectively. Moreover, in series [2] (outward current at +100 mV), the “Diclofenac-induced outward current potentiated up to (maximal, % of control)” value came to 131%.

On to `CC[C@H](C)[C@@H]1NC(=O)[C@@H](NC(=O)CNC(=O)CNC(=O)[C@@H](NC(=O)[C@@H](NC(=O)[C@@H](NC(=O)[C@@H](N)CC(N)=O)[C@@H](C)CC)[C@@H](C)CC)C(C)C)CSSC[C@@H]2NC(=O)[C@H](CCCNC(=N)N)NC(=O)CNC(=O)[C@H](CO)NC(=O)[C@H](C)NC(=O)[C@H](CC(N)=O)NC(=O)[C@H](CCCCN)NC(=O)[C@H](C(C)C)NC(=O)[C@H](Cc3c[nH]cn3)NC(=O)[C@H](CSSC[C@@H](C(=O)NCC(=O)N[C@H](C(=O)N[C@@H](CC(=O)O)C(=O)N[C@@H](CCCCN)C(=O)N[C@H](C(=O)N3CCC[C@H]3C(=O)N[C@@H](CC(=O)O)C(=O)N[C@@H](CC(C)C)C(=O)N[C@@H](Cc3ccccc3)C(=O)N[C@@H](CO)C(=O)O)C(C)C)C(C)C)NC(=O)CNC(=O)[C@H](C(C)C)NC(=O)[C@H]([C@@H](C)CC)NC(=O)[C@H](CCCNC(=N)N)NC(=O)[C@H](C(C)C)NC2=O)NC(=O)[C@H](CCCCN)NC1=O` [Ms 9a-1] (H-NIIVGGCIKCHVKNASGRCVRIVGCGVDKVPDLFS-OH; disulfide 7-19, 10-25), for which the “Pain or thermal hyperalgesia caused in vivo” value in series [3] is “does not cause pain or thermal hyperalgesia”. Moreover, in series [2] (inward current at −100 mV), the “Diclofenac-induced inward current potentiated up to (maximal, % of control)” value is listed as 190%. In addition, the EC50 in series [2] (setting [4]) was 210 ± 3 nM; in series [2] (setting [5]) it was 32 ± 7 nM. Moreover, the “Diclofenac-induced outward current potentiated up to (maximal, % of control)” value in series [2] (outward current at +100 mV) stood at 175%.

With `CC[C@H](C)[C@@H]1NC(=O)[C@H](CCCNC(=N)N)NC(=O)[C@H](C(C)C)NC(=O)[C@@H]2CSSC[C@H](NC(=O)CNC(=O)CNC(=O)[C@@H](NC(=O)[C@@H](NC(=O)[C@@H](NC(=O)[C@@H](N)CC(N)=O)[C@@H](C)CC)[C@@H](C)CC)C(C)C)C(=O)N[C@@H](CO)C(=O)N[C@@H](CCCCN)C(=O)N[C@@H](CSSC[C@@H](C(=O)NCC(=O)N[C@H](C(=O)O)C(C)C)NC(=O)CNC(=O)[C@H](C)NC1=O)C(=O)N[C@@H](Cc1c[nH]cn1)C(=O)N[C@@H]([C@@H](C)O)C(=O)N[C@@H](CCC(=O)O)C(=O)N[C@@H](CC(=O)O)C(=O)N[C@@H](CO)C(=O)N[C@@H](CC(N)=O)C(=O)NCC(=O)N[C@@H](CC(N)=O)C(=O)N2` [Ms 9a-3] (H-NIIVGGCSKCHTEDSNGNCVRIAGCGV-OH; disulfide 7-19, 10-25), the “Maximal potentiating effect lower than that of Ms 9a-1” value in series [2] is on record as 15–30%. The “Diclofenac-induced inward current potentiated up to (maximal, % of control)” value in series [2] (inward current at −100 mV) came out at 159%. Further, the EC50 in series [2] (setting [4]) came to 5440 ± 2900 nM; in series [2] (setting [5]) it was 7800 ± 600 nM. The “Diclofenac-induced outward current potentiated up to (maximal, % of control)” value in series [2] (outward current at +100 mV) stood at 175%.
